Measured values taken from ChEMBL document CHEMBL3608265, “Synthesis and inhibitory activity of substrate-analog fructosyl peptide oxidase inhibitors” (Bioorg Med Chem Lett, 2015).
Activity calls are given as the source filed them. The rule behind the calls is not given here.

What was measured:
Coniochaeta [1] = assay: Competitive inhibition of Coniochaeta sp. FPOX-C CFP-T7 mutant using Fru-ValHis as substrate at 250 to 1250 uM by Lineweaver-Burk plot analysis
[2] = Inhibition of Coniochaeta sp. FPOX-C CFP-T7 mutant using Fru-ValHis as substrate by Dixon plot analysis
Coniochaeta [3] = assay: Competitive inhibition of Coniochaeta sp. FPOX-C CFP-T7 mutant using Fru-ValHis as substrate at 5 to 25 uM by Lineweaver-Burk plot analysis
Coniochaeta [4] = assay: Competitive inhibition of Coniochaeta sp. FPOX-C CFP-T7 mutant using Fru-ValHis as substrate at 20 to 100 uM by Lineweaver-Burk plot analysis

inhibition (Coniochaeta [1])	Ki [2]	inhibition (Coniochaeta [3])	inhibition (Coniochaeta [4])	SMILES
Active	782 µM			N[C@@H](CCCCSC[C@@]1(O)OC[C@@H](O)[C@@H](O)[C@@H]1O)C(=O)O
	11.1 µM	Active		CC(C)[C@H](SC[C@@]1(O)OC[C@@H](O)[C@@H](O)[C@@H]1O)C(=O)O
	66.8 µM		Active	CC(C)[C@H](SC[C@@]1(O)OC[C@@H](O)[C@@H](O)[C@@H]1O)C(=O)N[C@@H](Cc1c[nH]cn1)C(=O)O
